In patent US20050026827A1, “Octapeptide bombesin analogs” (Societe de Conseils de Recherches et d'Applications …, priority 1987, published 2005):
Entries after “also recorded” stand apart in the source; their conditions may differ.

What was measured:
[1] = molecular target: adenylate cyclase activity in rat anterior pituitary homogenates; conditions: Robberecht et al.; cited from earlier work
[2] = test system: rat anterior pituitary cells; assay: Growth hormone release from primary culture of rat anterior pituitary cells (agonist potency); assay type: cell-based; conditions: doses as high as 0.1 mM
Procedure: (§1) Phase 7—Inhibition of Growth Hormone Release
(§2) Anterior pituitaries from adult male rats, weighing 200-250 g and housed under controlled conditions (lights on from 0500-1900 h), were dispersed using aseptic technique by a previously described trypsin/DNase method (Heiman et al., Endocrinology, 1985, 116, 410) derived from other methods (Hoefer et al., Mol. Cell. Endocrinol., 1984, 35, 229).
(§3) The dispersed cells were diluted with sterile-filtered Dulbecco's modified Eagle medium (MEM) (Gibco Laboratories, Grand Island, N.Y. (GIBCO)), which was supplemented with fetal calf serum (2.5%; GIBCO), horse serum (3%; GIBCO), fresh rat serum (10% stored on ice for no longer than 1 h) from the pituitary donors, MEM nonessential amino acids (1%; GIBCO), gentamycin (10/mg/mL; Sigma) and nystatin (10,000 U/mL; GIBCO). The cells were counted with a hemacytometer (approximately 2,000,000 cells per pituitary) and randomly plated at a density of 200,000 per well (Co-star cluster 24; Rochester Scientific Co., Rochester, N.Y.). […]
(§4) Growth hormone (GH) in plasma and media was measured by a standard double antibody radioimmunoassay using components supplied by the NIDDK and the National Hormone and Pituitary Program, University of Maryland School of Medicine. […] Potencies and 95% confidence intervals were calculateds by 4-point assay (Pugsley, Endocrinology, 1946, 39, 161). […]

[3] = test system: rat anterior pituitary cells; assay type: cell-based; conditions: vs 1 nM GRF(1-29)NH2; read-out: IC50 (antagonist of GRF-stimulated GH secretion)
Procedure: as §1, §2, §3, §4

Compound	IC50 [1]	agonist activity in the potency assay (in words) [2]	IC50 [3]
[N-Ac-Tyr^1, D-Arg^2]GRF(1-29)NH2	~1 µM		
CC[C@H](C)[C@H](NC(=O)[C@H](C)NC(=O)[C@H](CC(=O)O)NC(=O)[C@H](C)NC(=O)[C@@H](N)Cc1ccc(O)cc1)C(=O)N[C@@H](Cc1ccccc1)C(=O)N[C@H](C(=O)N[C@@H](CC(N)=O)C(=O)N[C@@H](CO)CN[C@@H](Cc1ccc(O)cc1)C(=O)N[C@@H](CCCNC(=N)N)C(=O)N[C@@H](CCCCN)C(=O)N[C@H](C(=O)N[C@@H](CC(C)C)C(=O)NCC(=O)N[C@@H](CCC(N)=O)C(=O)N[C@@H](CC(C)C)C(=O)N[C@@H](CO)C(=O)N[C@@H](C)C(=O)N[C@@H](CCCNC(=N)N)C(=O)N[C@@H](CCCCN)C(=O)N[C@@H](CC(C)C)C(=O)N[C@@H](CC(C)C)C(=O)N[C@@H](CCC(N)=O)C(=O)N[C@@H](CC(=O)O)C(=O)N[C@H](C(=O)N[C@@H](CCSC)C(=O)N[C@@H](CO)C(=O)N[C@@H](CCCNC(=N)N)C(N)=O)[C@@H](C)CC)C(C)C)[C@@H](C)O [VIII, [Ser^9ψ[CH2NH]Tyr^10]-GRF(1-29)NH2]		inactive; also recorded: all trace of agonist activity was lost	~10 µM
